The record followed here is the supplement of paper PMC10307832.

Compound in experiment [1]: COc1cc2nc(N3CCCN(C)CC3)nc(NC3CCN(Cc4ccccc4)CC3)c2cc1OC + CC1(C)CCC(c2ccc(Cl)cc2)=C(CN2CCN(c3ccc(C(=O)NS(=O)(=O)c4ccc(N[C@H](CCN5CCOCC5)CSc5ccccc5)c(S(=O)(=O)C(F)(F)F)c4)cc3)CC2)C1 [Navitoclax] (partner 0.5 µM)
Nature of the experiment: relative viability (nuclei count vs DMSO), 5 days (fraction); higher = more cells survive. The method in brief:
(§1)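 Lung cancer cell lines, seeded in 1536-well plates, were treated the following day by pin tool with a single drug or with five library-drug doses (not always all listed) in √10 steps on top of a fixed anchor-drug dose. Cells were fixed and nuclei stained in one step after 5 days, and nuclei were counted. Relative viability is the nuclei count for treated wells divided by that for vehicle wells, reported as medians of duplicate plates.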

Compound in the experiment “AZD6482 + Foretinib”: Cc1cc([C@@H](C)Nc2ccccc2C(=O)O)c2nc(N3CCOCC3)cc(=O)n2c1 [AZD6482] + COc1cc2c(Oc3ccc(NC(=O)C4(C(=O)Nc5ccc(F)cc5)CC4)cc3F)ccnc2cc1OCCCN1CCOCC1 [Foretinib] (partner 0.25 µM)
The description is as above. In outline: as §1

With NCI-H1993, the relative viability worked out at 0.919 in experiment [1] (first compound 0.2 µM); 0.97 in experiment [1] (first compound 0.6325 µM); 1.04 in experiment [1] (first compound 2 µM); 0.991 in experiment [1] (first compound 6.325 µM); 0.674 with AZD6482 + Foretinib (first compound 0.08 µM); 0.745 with AZD6482 + Foretinib (first compound 0.253 µM). Also, the relative viability in the experiment with AZD6482 + Foretinib (first compound 0.8 µM) turned out to be 0.846; with AZD6482 + Foretinib (first compound 2.53 µM), 0.558; in the experiment with AZD6482 + Foretinib (first compound 8 µM), 0.562.

On to NCI-H1734, for which the relative viability in experiment [1] (first compound 0.2 µM) was found to be 0.883; in experiment [1] (first compound 0.6325 µM), 0.757; in experiment [1] (first compound 2 µM) it was 0.83; in experiment [1] (first compound 6.325 µM), 0.599; in the experiment with AZD6482 + Foretinib (first compound 0.08 µM) it was 0.829; with AZD6482 + Foretinib (first compound 0.253 µM), 0.788. Moreover, the relative viability with AZD6482 + Foretinib (first compound 0.8 µM) turned out to be 0.875; in the experiment with AZD6482 + Foretinib (first compound 2.53 µM) it was 0.604; with AZD6482 + Foretinib (first compound 8 µM), 0.671.

Take HOP-62: the relative viability came out at 0.856 in experiment [1] (first compound 0.2 µM); 1.07 in experiment [1] (first compound 0.6325 µM); 1.15 in experiment [1] (first compound 2 µM); 1.02 in experiment [1] (first compound 6.325 µM); 1.12 with AZD6482 + Foretinib (first compound 0.08 µM); 1.15 in the experiment with AZD6482 + Foretinib (first compound 0.253 µM). In addition, the relative viability was found to be 1.23 with AZD6482 + Foretinib (first compound 0.8 µM), 0.94 in the experiment with AZD6482 + Foretinib (first compound 2.53 µM) and 1.02 with AZD6482 + Foretinib (first compound 8 µM).

As for LOU-NH91, the relative viability worked out at 0.717 in experiment [1] (first compound 0.2 µM); 0.688 in experiment [1] (first compound 0.6325 µM); 0.578 in experiment [1] (first compound 2 µM); 0.742 in experiment [1] (first compound 6.325 µM); 0.826 with AZD6482 + Foretinib (first compound 0.08 µM); 0.846 with AZD6482 + Foretinib (first compound 0.253 µM). For the same cell line, the relative viability in the experiment with AZD6482 + Foretinib (first compound 0.8 µM) worked out at 0.993; with AZD6482 + Foretinib (first compound 2.53 µM), 0.603; with AZD6482 + Foretinib (first compound 8 µM), 0.677.

Turning to ChaGo-K-1, the relative viability is 0.987 in experiment [1] (first compound 0.2 µM); 1.05 in experiment [1] (first compound 0.6325 µM); 1.13 in experiment [1] (first compound 2 µM); 0.72 in experiment [1] (first compound 6.325 µM); 0.973 in the experiment with AZD6482 + Foretinib (first compound 0.08 µM); 0.863 with AZD6482 + Foretinib (first compound 0.253 µM). In addition, the relative viability amounted to 0.833 in the experiment with AZD6482 + Foretinib (first compound 0.8 µM), 0.894 with AZD6482 + Foretinib (first compound 2.53 µM) and 0.968 with AZD6482 + Foretinib (first compound 8 µM).

For NCI-H2228, the relative viability came to 0.703 in experiment [1] (first compound 0.2 µM); 0.742 in experiment [1] (first compound 0.6325 µM); 0.797 in experiment [1] (first compound 2 µM); 0.415 in experiment [1] (first compound 6.325 µM); 0.791 with AZD6482 + Foretinib (first compound 0.253 µM); 0.862 with AZD6482 + Foretinib (first compound 0.8 µM). In addition, the relative viability with AZD6482 + Foretinib (first compound 2.53 µM) stood at 0.694; in the experiment with AZD6482 + Foretinib (first compound 8 µM), 0.649.

In the case of PC-14, the relative viability in experiment [1] (first compound 0.2 µM) worked out at 1; in experiment [1] (first compound 0.6325 µM) it was 0.93; in experiment [1] (first compound 2 µM), 1.14; in experiment [1] (first compound 6.325 µM), 0.882; with AZD6482 + Foretinib (first compound 0.08 µM) it was 0.906; with AZD6482 + Foretinib (first compound 0.253 µM) it was 0.9. Also, the relative viability came to 0.945 with AZD6482 + Foretinib (first compound 0.8 µM), 0.83 with AZD6482 + Foretinib (first compound 2.53 µM) and 0.953 with AZD6482 + Foretinib (first compound 8 µM).

For the cell line NCI-H1437, the relative viability in experiment [1] (first compound 0.2 µM) turned out to be 1.12; in experiment [1] (first compound 0.6325 µM), 1.04; in experiment [1] (first compound 2 µM) it was 1.17; in experiment [1] (first compound 6.325 µM), 1.04; with AZD6482 + Foretinib (first compound 0.08 µM), 1.2; with AZD6482 + Foretinib (first compound 0.253 µM) it was 1.33. In addition, the relative viability amounted to 1.31 with AZD6482 + Foretinib (first compound 0.8 µM), 1.13 with AZD6482 + Foretinib (first compound 2.53 µM) and 0.923 in the experiment with AZD6482 + Foretinib (first compound 8 µM).

Turning to NCI-H460, the relative viability in experiment [1] (first compound 0.2 µM) turned out to be 1.16; in experiment [1] (first compound 0.6325 µM), 1.13; in experiment [1] (first compound 2 µM), 1.17; in experiment [1] (first compound 6.325 µM), 0.754; with AZD6482 + Foretinib (first compound 0.08 µM), 1.03; with AZD6482 + Foretinib (first compound 0.253 µM), 0.977. Besides, the relative viability in the experiment with AZD6482 + Foretinib (first compound 0.8 µM) was 1; with AZD6482 + Foretinib (first compound 2.53 µM) it was 0.828; with AZD6482 + Foretinib (first compound 8 µM) it was 0.719.

Turning to NCI-H1666, the relative viability in experiment [1] (first compound 0.2 µM) is 0.934; in experiment [1] (first compound 0.6325 µM), 1.16; in experiment [1] (first compound 2 µM) it was 1.03; in experiment [1] (first compound 6.325 µM) it was 0.642; with AZD6482 + Foretinib (first compound 0.08 µM), 0.914; with AZD6482 + Foretinib (first compound 0.253 µM), 0.868. Also, the relative viability with AZD6482 + Foretinib (first compound 0.8 µM) came to 1.03; with AZD6482 + Foretinib (first compound 2.53 µM), 0.785; in the experiment with AZD6482 + Foretinib (first compound 8 µM), 0.989.

Regarding SW 900, the relative viability turned out to be 0.751 with AZD6482 + Foretinib (first compound 0.08 µM), 0.753 with AZD6482 + Foretinib (first compound 0.253 µM), 0.773 with AZD6482 + Foretinib (first compound 0.8 µM) and 0.792 with AZD6482 + Foretinib (first compound 8 µM).

Take NCI-H1651: the relative viability is 1.14 in experiment [1] (first compound 0.2 µM); 1.02 in experiment [1] (first compound 0.6325 µM); 1.42 in experiment [1] (first compound 2 µM); 1.03 in experiment [1] (first compound 6.325 µM); 0.624 with AZD6482 + Foretinib (first compound 0.08 µM); 0.699 in the experiment with AZD6482 + Foretinib (first compound 0.253 µM). For the same cell line, the relative viability with AZD6482 + Foretinib (first compound 0.8 µM) worked out at 0.736; with AZD6482 + Foretinib (first compound 2.53 µM), 0.566; with AZD6482 + Foretinib (first compound 8 µM) it was 0.636.

On to NCI-H661, for which the relative viability with AZD6482 + Foretinib (first compound 0.08 µM) amounted to 0.962; in the experiment with AZD6482 + Foretinib (first compound 0.253 µM), 1.06; in the experiment with AZD6482 + Foretinib (first compound 0.8 µM), 1.14; with AZD6482 + Foretinib (first compound 2.53 µM) it was 0.723; with AZD6482 + Foretinib (first compound 8 µM), 0.815.

In the case of NCI-H1563, the relative viability with AZD6482 + Foretinib (first compound 0.08 µM) stood at 0.89; with AZD6482 + Foretinib (first compound 0.253 µM) it was 0.875; in the experiment with AZD6482 + Foretinib (first compound 0.8 µM), 0.908; with AZD6482 + Foretinib (first compound 2.53 µM) it was 0.765; in the experiment with AZD6482 + Foretinib (first compound 8 µM) it was 0.652.

On to NCI-H2342, for which the relative viability with AZD6482 + Foretinib (first compound 0.08 µM) was determined as 0.927; with AZD6482 + Foretinib (first compound 0.253 µM) it was 0.891; in the experiment with AZD6482 + Foretinib (first compound 0.8 µM), 0.987; with AZD6482 + Foretinib (first compound 2.53 µM), 0.614; with AZD6482 + Foretinib (first compound 8 µM), 0.653.

Turning to NCI-H1623, the relative viability in the experiment with AZD6482 + Foretinib (first compound 0.08 µM) came out at 0.778; with AZD6482 + Foretinib (first compound 0.253 µM), 0.888; with AZD6482 + Foretinib (first compound 0.8 µM), 0.923; with AZD6482 + Foretinib (first compound 2.53 µM), 0.703; with AZD6482 + Foretinib (first compound 8 µM), 0.682.

Consider NCI-H358, for which the relative viability with AZD6482 + Foretinib (first compound 0.08 µM) was 0.484; in the experiment with AZD6482 + Foretinib (first compound 0.253 µM), 0.706; with AZD6482 + Foretinib (first compound 0.8 µM), 0.679; with AZD6482 + Foretinib (first compound 2.53 µM), 0.407; with AZD6482 + Foretinib (first compound 8 µM) it was 0.489.
